# Data from US9745280B2, “Compound or pharmaceutically acceptable salt thereof, and pharmaceutical composition containing same as active ingredient” (SNU R&DB FOUNDATION, priority 2012, dated 2017).
# pIC50: −log10 of the molar value. Like-named read-outs stand apart in the source and are kept apart here.
# How the values were obtained:
# [1] = system: H1299 NSCLC (non-small cell lung cancer) cells; experiment: Cancer cell growth inhibition (MTS); format: cell-based; details: Homo sapiens, NCI-H1299, 48 hours, MTS reagent
# Method: To investigate the inhibitory effect of the compounds of Examples of the present invention on cancer cell growth, the following experiment was performed. Particularly, H1299 NSCLC (non-small cell lung cancer) cells were distributed in a 96-well plate at the density of 5×10^3 cells/well, followed by culture in a 37° C., 5% CO2 incubator for 24 hours. The compound of each example was dissolved in DMSO (10 nM, 100 nM, 1 μM, 10 μM), which was treated to each well. 48 hours later, cell growth was measured by using MTS reagent (3-(4,5-dimethylthiazole-2-yl)-5-(3-carboxymethoxyphenyl)-2-(4-sulfophenyl)-2H-tetrazolium). The experiment was performed in triplicate and the standard error of the analysis result was corrected.
# HIF-1α = HIF-1α inhibitory activity, hypoxia-response element-luciferase in HRE-A549 cells; format: cell-based; details: for pIC50: HRE-A549 cells, hypoxia-chamber 24 h, luciferase activity
# Method: HRE-A549 cells stably transfected with hypoxia-response element-luciferase construct were incubated in Dulbecco's modified Eagle's medium. Following overnight serum deprivation, the cells were treated with or without Deguelin or example compounds. After 1 h incubation, the cells were incubated in hypoxia-chamber for 24 h at 37° C. Luciferase activity was measured by adding luciferase assay reagent (Promega, Madison, Wis.).
SMILES,pIC50 [1],pIC50 (HIF-1α; read-out: IC50),further results
"COc1cc2c(cc1OC)[C@H](C(=O)c1ccc3c(c1)C=CC(C)(C)O3)CCO2 (stereo in doubt) [Example 26, (6,7-Dimethoxychroman-4-yl) (2,2-dimethyl-2H-chromen-6-yl)methanone]",5.42,,
"COc1cc2c(cc1OC)[C@@H]1C(=O)c3ccc4c(c3O[C@@H]1CO2)C=CC(C)(C)O4 [Comparative Example 1 (Deguelin), (7aS,13aS)-9,10-Dimethoxy-3,3-dimethyl-13,13a-dihydro-3H-chromeno[3,4-b]pyrano[2,3-h]chromen-7(7aH)-one, reference compound]",6.96,,pIC50 (HIF-1α): 6.78
"CC1(C)C=Cc2c(ccc3c2O[C@@H]2COc4cc(O)c(O)cc4[C@@H]2C3=O)O1 [Example 4, (7aS,13aS)-13,13a-Dihydro-9,10-dihydroxy-3,3-dimethyl-3H-chromeno[3,4-b]pyrano[2,3-h]chromen-7(7aH)-one]",6.01,,
"COc1cc2c(cc1OC)-c1c(oc3c4c(ccc3c1=O)OC(C)(C)C=C4)CO2 [Example 5, 9,10-Dimethoxy-3,3-dimethyl-3H-chromeno[3,4-b]pyrano[2,3-h]chromen-7-(13H)-one]",5.00,,
"COc1cc2c(cc1OC)[C@@H]1Cc3ccc4c(c3O[C@@H]1CO2)C=CC(C)(C)O4 [Example 7, (7aS,13aS)-9,10-Dimethoxy-3,3-dimethyl-7,7a,13,13a-tetrahydro-3H-chromeno[3,4-b]pyrano[2,3-h]chromene]",5.38,,
"CCO[C@@H]1c2ccc3c(c2O[C@@H]2COc4cc(OC)c(OC)cc4[C@H]12)C=CC(C)(C)O3 [Example 9, (7S,7aR,3aS)-9,10-Dimethoxy-3,3-dimethyl-7-ethoxy-7,7a,13,13a-tetrahydro-3H-chromeno[3,4-b]pyrano[2,3-h]chromene]",5.01,,
"CCCO[C@@H]1c2ccc3c(c2O[C@@H]2COc4cc(OC)c(OC)cc4[C@H]12)C=CC(C)(C)O3 [Example 10, (7S,7aR,3aS)-9,10-Dimethoxy-3,3-dimethyl-7-propoxy-7,7a,13,13a-tetrahydro-3H-chromeno[3,4-b]pyrano[2,3-h]chromene]",4.98,,
"COc1cc2c(cc1OC)[C@@H]1[C@H](OC(C)=O)c3ccc4c(c3O[C@@H]1CO2)C=CC(C)(C)O4 [Example 13, (7S,7aS,13aS)-9,10-Dimethoxy-3,3-dimethyl-7,7a,13,13a-tetrahydro-3H-chromeno[3,4-b]pyrano[2,3,h]chromen-7-yl acetate]",6.17,,
"COc1cc2c(cc1OC)[C@@H]1/C(=N/O)c3ccc4c(c3O[C@@H]1CO2)C=CC(C)(C)O4 [Example 16, (7aR,13aS)-9,10-Dimethoxy-3,3-dimethyl-13,13a-dihydro-3H-chromeno[3,4-b]pyrano[2,3-h]chromen-7(7aH)-one oxime]",6.52,,
"CO/N=C1\c2ccc3c(c2O[C@@H]2COc4cc(OC)c(OC)cc4[C@H]12)C=CC(C)(C)O3 [Example 17, (7aR,13aS)-9,10-Dimethoxy-3,3-dimethyl-13,13a-dihydro-3H-chromeno[3,4-b]pyrano[2,3-h]chromen-7(7aH)-one O-methyloxime]",5.37,,
"COc1cc2c(cc1OC)[C@@H]1C(=O)c3ccc(OC)c(CC=C(C)C)c3O[C@@H]1CO2 [Example 21, 2,3,9-Trimethoxy-8-(3-methyl-but-2-enyl)-6a,12a-dihydro-6H-chromeno[3,4-b]chromen-12-one]",5.28,,
"COc1ccc([C@H]2COc3c(ccc4c3C=CC(C)(C)O4)C2=O)cc1OC [Example 25, (3S)-3-(3,4-Dimethoxyphenyl)-8,8-dimethyl-2,3-dihydro-4H,8H-pyrano[2,3-f]chromen-4-one]",5.35,,
"COc1ccc(CC(=O)c2ccc3c(c2)C=CC(C)(C)O3)cc1OC [Example 27, 2-(3,4-Dimethoxyphenyl)-1-(2,2-dimethyl-2H-chromen-6-yl)ethanone]",6.00,,
"COc1ccc(C(C)C(=O)c2ccc3c(c2OC)C=CC(C)(C)O3)cc1OC (stereo not drawn) [Example 29, 2-(3,4-Dimethoxyphenyl)-1-(5-methoxy-2,2-dimethyl-2H-chromen-6-yl)propan-1-one]",6.14,,
"COc1ccc(C(C)(C)C(=O)c2ccc3c(c2OC)C=CC(C)(C)O3)cc1OC [Example 30, 2-(3,4-Dimethoxyphenyl)-1-(5-methoxy-2,2-dimethyl-2H-chromen-6-yl)-2-methylpropan-1-one]",5.49,,
COc1ccc(C2(C(=O)c3ccc4c(c3OC)C=CC(C)(C)O4)CC2)cc1OC [Example 32],3.99,,
"COc1ccc([C@H](C)C(=O)c2ccc3c(c2OC)C=CC(C)(C)O3)cc1OC [Example 33, (S)-2-(3,4-Dimethoxyphenyl)-1-(5-methoxy-2,2-dimethyl-2H-chromen-6-yl)propan-1-one]",6.31,,
"COc1ccc([C@@H](C)C(=O)c2ccc3c(c2OC)C=CC(C)(C)O3)cc1OC [Example 34, (R)-2-(3,4-Dimethoxyphenyl)-1-(5-methoxy-2,2-dimethyl-2H-chromen-6-yl)propan-1-one]",5.89,,
"COc1c(C(=O)Cc2ccc(F)c(F)c2)ccc2c1C=CC(C)(C)O2 [Example 56, 2-(3,4-difluorophenyl)-1-(5-methoxy-2,2-dimethyl-2H-chromen-6-yl)ethanone]",,5.89,
"COc1c(C(=O)Cc2ccc3c(c2)OCCO3)ccc2c1C=CC(C)(C)O2 [Example 58, 2-(2,3-dihydrobenzo[b][1,4]dioxin-6-yl)-1-(5-methoxy-2,2-dimethyl-2H-chromen-6-yl)ethanone]",,5.87,
"COc1c(C(=O)Cc2ccccc2)ccc2c1C=CC(C)(C)O2 [Example 59, 1-(5-methoxy-2,2-dimethyl-2H-chromen-6-yl)-2-phenylethanone]",,6.05,
"COc1c(C(=O)Cc2ccccc2Cl)ccc2c1C=CC(C)(C)O2 [Example 64, 2-(2-chlorophenyl)-1-(5-methoxy-2,2-dimethyl-2H-chromen-6-yl)ethanone]",,6.48,

# The next lines start with results.
pIC50 [1],pIC50 (HIF-1α; read-out: IC50),SMILES,further results
,6.44,"COc1c(C(=O)Cc2cccc(F)c2)ccc2c1C=CC(C)(C)O2 [Example 66, 2-(3-fluorophenyl)-1-(5-methoxy-2,2-dimethyl-2H-chromen-6-yl)ethanone]",
,7.10,"COc1c(C(=O)Cc2ccccc2F)ccc2c1C=CC(C)(C)O2 [Example 67, 2-(2-fluorophenyl)-1-(5-methoxy-2,2-dimethyl-2H-chromen-6-yl)ethanone]","times lower concentration compared to Comparative Example 1 (Deguelin) (HIF-1α; HIF-1α inhibition, HRE-A549): 2"
,6.21,"COc1c(C(=O)Cc2cccc(Cl)c2)ccc2c1C=CC(C)(C)O2 [Example 68, 2-(3-chlorophenyl)-1-(5-methoxy-2,2-dimethyl-2H-chromen-6-yl)ethanone]",
,5.67,"COc1c(C(=O)Cc2ccccc2C(F)(F)F)ccc2c1C=CC(C)(C)O2 [Example 69, 1-(5-methoxy-2,2-dimethyl-2H-chromen-6-yl)-2-(2-(trifluoromethyl)phenyl)ethanone]",
,5.90,"COc1c(C(=O)Cc2ccc(C#N)cc2)ccc2c1C=CC(C)(C)O2 [Example 72, 4-(2-(5-methoxy-2,2-dimethyl-2H-chromen-6-yl)-2-oxoethyl)benzonitrile]",
,5.99,"COc1c(C(=O)Cc2ccc(F)cc2)ccc2c1C=CC(C)(C)O2 [Example 73, 2-(4-fluorophenyl)-1-(5-methoxy-2,2-dimethyl-2H-chromen-6-yl)ethanone]",
,5.90,"COc1c(C(=O)Cc2ccc(Cl)cc2)ccc2c1C=CC(C)(C)O2 [Example 74, 2-(4-chlorophenyl)-1-(5-W methoxy-2,2-dimethyl-2H-chromen-6-yl)ethanone]",
,6.22,"COc1c(C(=O)Cc2ccc(C(F)(F)F)cc2)ccc2c1C=CC(C)(C)O2 [Example 75, 1-(5-methoxy-2,2-dimethyl-2H-chromen-6-yl)-2-(4-(trifluoromethyl)phenyl)ethanone]",
,6.08,"COc1cccc(CC(=O)c2ccc3c(c2OC)C=CC(C)(C)O3)c1 [Example 76, 1-(5-methoxy-2,2-dimethyl-2H-chromen-6-yl)-2-(3-methoxyphenyl)ethanone]",
,5.84,"COc1c(C(=O)Cc2cccc(O)c2)ccc2c1C=CC(C)(C)O2 [Example 83, 2-(3-hydroxyphenyl)-1-(5-methoxy-2,2-dimethyl-2H-chromen-6-yl)ethanone]",
,6.03,"COc1c(C(=O)Cc2ccccc2O)ccc2c1C=CC(C)(C)O2 [Example 84, 2-(2-hydroxyphenyl)-1-(5-methoxy-2,2-dimethyl-2H-chromen-6-yl)ethanone]",
,6.10,"COc1c(C(=O)Cc2ccc(O)cc2)ccc2c1C=CC(C)(C)O2 [Example 85, 2-(4-hydroxyphenyl)-1-(5-methoxy-2,2-dimethyl-2H-chromen-6-yl)ethanone]",
